Source: US10851096B2, “Aryl and heteroaryl amides for use as anti-proliferative, anti-thrombotic, and anti-viral agents” (Rutgers, The State University of New Jersey, priority 2016, dated 2020)

target: T1, Tyro3 (Homo sapiens, UniProt Q06418); experiment: not given; conditions: cited from earlier work
T1 sequence (Q06418 41-890): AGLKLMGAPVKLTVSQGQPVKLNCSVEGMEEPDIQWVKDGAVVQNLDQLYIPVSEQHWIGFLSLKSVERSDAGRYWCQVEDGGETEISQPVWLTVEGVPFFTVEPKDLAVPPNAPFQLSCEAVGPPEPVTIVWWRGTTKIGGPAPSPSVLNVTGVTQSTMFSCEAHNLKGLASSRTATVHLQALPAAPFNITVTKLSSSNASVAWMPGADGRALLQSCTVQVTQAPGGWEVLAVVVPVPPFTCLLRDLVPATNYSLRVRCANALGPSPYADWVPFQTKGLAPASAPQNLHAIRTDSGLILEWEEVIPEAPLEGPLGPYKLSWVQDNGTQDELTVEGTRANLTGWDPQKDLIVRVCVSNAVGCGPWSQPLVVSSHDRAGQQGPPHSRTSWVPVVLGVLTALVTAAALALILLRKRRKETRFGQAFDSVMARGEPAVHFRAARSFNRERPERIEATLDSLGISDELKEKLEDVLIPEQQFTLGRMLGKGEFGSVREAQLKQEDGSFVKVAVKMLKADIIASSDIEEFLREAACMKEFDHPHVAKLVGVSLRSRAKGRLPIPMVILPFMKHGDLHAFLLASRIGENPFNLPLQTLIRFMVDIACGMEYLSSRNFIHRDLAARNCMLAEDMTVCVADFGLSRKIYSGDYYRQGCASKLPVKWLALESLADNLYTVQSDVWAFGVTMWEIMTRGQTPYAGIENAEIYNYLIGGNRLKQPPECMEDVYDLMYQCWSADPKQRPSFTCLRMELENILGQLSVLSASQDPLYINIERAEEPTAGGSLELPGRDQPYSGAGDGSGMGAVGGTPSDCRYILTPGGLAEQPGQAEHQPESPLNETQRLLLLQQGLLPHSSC

Row | SMILES | IC50
1 | Nc1nc(Nc2ccc3c(c2)CC[C@@H](N2CCCC2)CC3)nn1-c1cc2c(nn1)-c1ccccc1CCC2 [BGB324] | 1400 nM

target: T2, hAxl/IFN-γR1 (Homo sapiens, UniProt P30530); experiment: hAxl/IFN-γR1 CHO reporter cell line assay, Gas6-induced activation (pSTAT1 immunoblot); assay type: cell-based; conditions: not given
T2 construct: containing human Axl extracellular domains and transmembrane and intracellular domains of human IFN-γR1; human IFN-γR1 transmembrane and intracellular domains (fusion partner); expressed in transfected cells
T2 sequence (P30530 26-451 limits assumed): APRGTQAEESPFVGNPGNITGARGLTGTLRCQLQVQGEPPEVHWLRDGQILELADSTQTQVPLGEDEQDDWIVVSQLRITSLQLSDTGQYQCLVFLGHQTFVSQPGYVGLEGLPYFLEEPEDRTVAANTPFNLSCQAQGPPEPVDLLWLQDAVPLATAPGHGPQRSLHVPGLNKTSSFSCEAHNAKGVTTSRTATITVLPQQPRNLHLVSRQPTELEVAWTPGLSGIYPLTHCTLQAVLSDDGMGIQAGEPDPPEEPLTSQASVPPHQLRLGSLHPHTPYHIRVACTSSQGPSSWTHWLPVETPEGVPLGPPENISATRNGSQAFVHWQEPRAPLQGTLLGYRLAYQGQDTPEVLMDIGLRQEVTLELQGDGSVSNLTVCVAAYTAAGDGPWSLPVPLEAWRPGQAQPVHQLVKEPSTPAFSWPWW
Protocol: Stable HEK 293 cells secreting human Gas6 (clone 7.4.1) were allowed to achieve 70% confluence in a 10-cm plate. The complete medium with 10% FBS was then changed into serum free media in the presence of 10 µg/mL vitamin K1 (Phytonadione injectable emulsion from Hospira). After 72 hours, the Gas6 conditioned medium was collected, and validated for the presence of Gas6 and γ-carboxylation (by immunoblot) and activity of Gas6 (via activation of pSTAT1 in hAxl/γR1 cells).
Stable hAxl/IFN-γR1 CHO reporter cell lines (containing human Axl extracellular domains and transmembrane and intracellular domains of human IFN-γR1) were serum starved for 5 hrs±small molecule inhibitors and then stimulated with human Gas6 conditioned media±small molecule inhibitors for 30 minutes. For H1299 human non-small cell lung carcinoma and MDA-MB-231 human breast adenocarcinoma cell lines, the cells were serum starved overnight±small molecule inhibitors and stimulated with human Gas6 conditioned media±small molecule inhibitors for 30 minutes. Whole cell lysates of hAxl/IFN-γR1, H1299 and MDA-MB-231 cells were prepared using HNTG buffer (20 mM HEPES, pH 7.5, 150 mM NaCl, 10% glycerol, 1% Triton X-100, 1 mM PMSF, 1 mM Na3VO4, 10 mM Na2MoO4, 1 mM EDTA, 10 mM NaF and 20 μg/mL aprotinin). The resulting lysates were resolved on SDS-PAGE gel and immunoblotted with respective antibodies.
Immunoblot data were obtained within a linear range of exposure, and intensities were quantified by ImageJ. The levels of hAxl/IFN-γR1 cells lines activation were measured by pSTAT1 whereas the levels of H1299 and MDA-MB-231 cell lines activation were measured by pAxl signal intensities. Blots were normalized to intensities of respective β-actin or GAPDH protein loading controls. The levels of pSTAT1 or pAxl activation induced by Gas6±small molecule inhibitors were plotted as a fold of enhancement or reduction over intensities induced by Gas6 alone.

Row | remaining activity at 10 µM | SMILES
2 | 60% | Cc1cc(CSc2ccccc2C(=O)N2CCN(Cc3ccc4c(c3)CCO4)CC2)no1 [1A]
3 | 70% | Cc1cc(CSc2ccccc2C(=O)N2CCN(CC(=O)N3CCOCC3)CC2)no1 [1B]
4 | 60% | Cc1cc(CSc2ccccc2C(=O)N2CCN(Cc3ccc(C#N)cc3)CC2)no1 [1C]
5 | 50% | Cc1cc(CSc2ccccc2C(=O)N2CCN(Cc3ccncc3)CC2)no1 [1D]
6 | 60% | Cc1nc(CSc2ccccc2C(=O)N2CCN(Cc3ccccc3)CC2)cs1 [1E]
7 | 20% | Cc1cc(CSc2ccccc2C(=O)N2CCN(Cc3nc4ccccc4s3)CC2)no1 [1F]
8 | 20% | O=C(c1ccccc1SCc1ccsc1)N1CCN(Cc2ccncc2)CC1 [1H]
9 | 80% | Cc1cc(CSc2ncccc2C(=O)N2CCN(CC(=O)Nc3cccc(C)c3C)CC2)no1 [1K]
10 | 20% | Cc1cc(CSc2ncccc2C(=O)N2CCN(CC(=O)Nc3ccccc3Cl)CC2)no1 [1L]
11 | 20% | Cc1noc(C)c1CSc1ccccc1C(=O)N1CCN(Cc2cccs2)CC1 [1M]
12 | 30% | Cc1cc(CSc2ccccc2C(=O)N2CCN(CC(=O)Nc3ccccc3Cl)CC2)no1 [1N]
13 | 40% | O=C(c1ccccc1SCc1cccs1)N1CCN(Cc2ccncc2)CC1 [1O]
14 | 100% | Cc1nc(COc2ccccc2C(=O)N2CCN(Cc3ccncc3)CC2)cs1 [1P]
15 | 40% | Cc1cc(CSc2ccccc2C(=O)NCCNc2ccccc2[N+](=O)[O-])on1 [1R]
16 | 57% | Cc1cc(CSc2ncccc2C(=O)NCCNc2ccc(C(F)(F)F)cc2[N+](=O)[O-])on1 [Compound 2]
17 | 26% | Cc1cc(CSc2ncncc2C(=O)NCCNc2ccc(C(F)(F)F)cc2[N+](=O)[O-])on1 [Compound 3]
18 | 83% | Cc1cc(CSc2nc(C)cc(C)c2C(=O)NCCNc2ccc(C(F)(F)F)cc2[N+](=O)[O-])on1 [Compound 4]
19 | 13% | Cc1cc(CSc2ccccc2C(=O)NCCNc2nc3ccccc3s2)on1 [Compound 5]
20 | 6% | Cc1cc(CSc2ccccc2C(=O)NCCNc2ccc(C(F)(F)F)cn2)on1 [Compound 6]
21 | 33% | Cc1cc(CSc2ccccc2C(=O)NCCNc2nc3cc(C(F)(F)F)ccc3s2)on1 [Compound 7]
22 | 9% | Cc1cc(CSc2ccccc2C(=O)NCCNc2ccc(C(F)(F)F)cc2C#N)on1 [Compound 8]

Row | remaining activity at 10 µM | SMILES
23 | 20% | Cc1cc(CSc2ccccc2C(=O)NCCNc2nc3ccccc3o2)on1 [Compound 9]
24 | 14% | Cc1cc(CSc2ccccc2C(=O)NCCNc2ccc(F)cc2C#N)on1 [Compound 10]
25 | 29% | Cc1cc(CSc2ccccc2C(=O)NCCNc2ccc(C(F)(F)F)c(C#N)c2)on1 [Compound 11]
26 | 16% | Cc1cc(CSc2ccccc2C(=O)NCCNc2ccc(C#N)cc2)on1 [Compound 12]
27 | 6% | Cc1cc(CSc2ccccc2C(=O)NCCNc2nc(C(F)(F)F)cs2)on1 [Compound 13]
28 | 110% | Cc1cc(CSc2ccccc2C(=O)N2CCN(CC(=O)Nc3ccc(F)cc3)CC2)no1 [Compound 14]
29 | 141% | Cc1cc(CSc2ccccc2C(=O)N2CCN(Cc3nc4ccccc4[nH]3)CC2)no1 [Compound 15]
30 | 109% | Cc1cc(CSc2ccccc2C(=O)N2CCN(CC(=O)Nc3ccccc3F)CC2)no1 [Compound 16]
31 | 79% | Cc1cc(CSc2ccccc2C(=O)N2CCN(CC(=O)Nc3ccc(Cl)cc3)CC2)no1 [Compound 17]
32 | 46% | Cc1cc(CSc2ccccc2C(=O)N2CCN(CC(=O)Nc3ccc(Cl)cn3)CC2)no1 [Compound 18]
33 | 41% | Cc1cc(CSc2ccccc2C(=O)N2CCN(Cc3nc4ccccc4o3)CC2)no1 [Compound 19]
34 | 55% | Cc1cc(CSc2ccccc2C(=O)N2CCN(Cc3nc4cccc(Cl)c4o3)CC2)no1 [Compound 20]
35 | 8% | Cc1cc(CSc2ccccc2C(=O)N2CCN(Cc3nc4cc(Cl)ccc4s3)CC2)no1 [Compound 21]
36 | 108% | CCN(C(=O)CN1CCN(C(=O)c2ccccc2SCc2cc(C)on2)CC1)c1ccc(F)cc1 [Compound 22]
37 | 8% | Cc1cc(CSc2ccccc2C(=O)N2CCN(Cc3nc4cc(C(F)(F)F)ccc4s3)CC2)no1 [Compound 23]
38 | 90% | COc1ccc2nc(CN3CCN(C(=O)c4ccccc4SCc4cc(C)on4)CC3)sc2c1 [Compound 24]
39 | 27% | Cc1ccc(NC(=O)CN2CCN(C(=O)c3ccccc3SCc3cc(C)on3)CC2)c(Cl)c1 [Compound 25]
40 | 54% | Cc1cc(CSc2ccccc2C(=O)N2CCN(CC(=O)NCc3ccc(Cl)cc3)CC2)no1 [Compound 26]
41 | 16% | Cc1cc(CSc2ccccc2C(=O)NCCNc2ncccn2)on1 [Compound 27]
42 | 6% | Cc1cc(CSc2ccccc2C(=O)NCCNc2ncc(C(F)(F)F)cc2Cl)on1 [Compound 28]
